Two compounds from US6372297B1, “Wood preservative oxathiazines” (Uniroyal Chemical Company, Inc., priority 1993, dated 2002) can be followed below.

The subject of data set [1] is blue-stain fungi and molds. Nature of the data set: Activity against blue-stain fungi and molds in a stick test (threshold concentrations). Particulars: beech sticks, 22° C., 90% relative humidity; for Threshold concentration (ppm), A. niger, score 0 / Threshold concentration (ppm), Aureobasidium, score 0 / Threshold concentration (ppm), Sclerophoma, score 0 / Threshold concentration (ppm), Trichoderma, score 0: minimum concentration to obtain score 0; for Threshold concentration (ppm), A. niger, score 1-2 / Threshold concentration (ppm), Aureobasidium, score 1-2 / Threshold concentration (ppm), Sclerophoma, score 1-2 / Threshold concentration (ppm), Trichoderma, score 1-2: minimum concentration to obtain score 1-2. The protocol: Representative compounds of this invention were dissolved in 50% ethanol. Each compound was then diluted serially using 50% ethanol. […] After three (3) hours, the solutions containing the test compounds were poured off and the treated sticks were allowed to dry in a sterile laminar air flow. Each treated stick was then placed in a Petri dish which had been previously seeded with inoculum. Two drops of a test fungal or spore suspension were pipetted onto the upper surface of each treated stick. The Petri dishes containing the treated sticks were incubated at 22° C. and 90% relative humidity. The treated sticks were evaluated after there was sufficient growth of fungus on control sticks (i.e., untreated sticks) incubated in the same manner. The following score system was used: 0: Stick free of fungal/mold growth 1: Traces of fungal growth on the stick 2: Slight growth (5 to 25% of the surface covered with fungal growth) 3: Moderate growth (25 to 50% covered with fungal growth) 4. Vigorous to maximum fungal growth (more than 50% growth) […]

In data set [2] the test system is molds and blue-stain fungi. The experiment in a line: In vitro activity against molds and blue-stain fungi, poison plate assay (MIC). In kind it is cell-based. Particulars: malt extract agar, complete inhibition. The protocol:
The effect of the representative compounds on the growth of certain molds and blue-strain fungi were determined using a poison plate assay according to the following procedure: The solutions of the representative compounds prepared above were further diluted with sterile water to desired concentrations and poured into Petri dishes. Malt extract agar medium was then added aseptically to the Petri dishes and to Petri dishes containing no compound (controls). The Petri dishes were then shaken to provide a uniform distribution of the agar medium. Each Petri dish containing compound and each control Petri dish, was then inoculated with a fungus and incubated for a period of time sufficient to permit complete growth of the fungus in the respective control Petri dish. The Petri dishes containing compound were then examined to determine the amount of inhibition of fungi for each concentration of compound tested.

Values after ≈ are worked out from the molar mass of the structure shown. Read-outs that look alike come from different tables or passages of the source. A value given as a limit tells only on which side of the number the result lay.

As for `CC1C[S+]([O-])C(c2cccs2)=NO1` (stereo not drawn) [Compound 50, 5,6-dihydro-6-methyl-3-(2-thienyl)-1,4,2-oxathiazine-4-oxide], the melting point (in general, the temperature of the solid-liquid transition) fell in the range of 114 to 115 °C. Besides, in data set [1], the “Threshold concentration (ppm), A. niger, score 0” value stood at 1000 ppm; the “Threshold concentration (ppm), A. niger, score 1-2” value is reported as 250-500 ppm; the “Threshold concentration (ppm), Aureobasidium, score 0” value is given as over 1000 ppm; the “Threshold concentration (ppm), Aureobasidium, score 1-2” value is 100-500 ppm. Besides, in data set [1], the “Threshold concentration (ppm), Sclerophoma, score 0” value was 100 ppm; the “Threshold concentration (ppm), Sclerophoma, score 1-2” value was 50-100 ppm; the “Threshold concentration (ppm), Trichoderma, score 0” value is 5000 ppm; the “Threshold concentration (ppm), Trichoderma, score 1-2” value is reported as 1000-2500 ppm.

Turning to `O=S1(=O)CCON=C1c1ccc(Cl)s1` [Compound 61, 3-(5-chloro-2-thienyl)-5,6-dihydro-1,4,2-oxathiazine-4,4-dioxide], the melting point lay within 113 to 114 °C. For the same compound, in data set [1], the “Threshold concentration (ppm), A. niger, score 0” value is given as under 250 ppm; the “Threshold concentration (ppm), A. niger, score 1-2” value is on record as under 250 ppm; the “Threshold concentration (ppm), Aureobasidium, score 0” value is listed as over 1000 ppm; the “Threshold concentration (ppm), Aureobasidium, score 1-2” value is on record as 250-500 ppm. For the same compound, in data set [1], the “Threshold concentration (ppm), Sclerophoma, score 0” value was determined as 100 ppm; the “Threshold concentration (ppm), Sclerophoma, score 1-2” value is on record as under 50 ppm; the “Threshold concentration (ppm), Trichoderma, score 0” value was determined as 2500 ppm; the “Threshold concentration (ppm), Trichoderma, score 1-2” value is given as 1000-2500 ppm. For the same compound, the MIC (in general, the lowest concentration found to suppress growth) in data set [2] (A. amstelodami, read-out: MIC (ppm) against A. amstelodami) stood at 5 mg/L (≈ 19.9 µM). Besides, the minimum inhibitory concentration (MIC) in data set [2] (Aspergillus niger, A. niger, read-out: MIC (ppm) against A. niger) is under 1 mg/L. Moreover, the MIC in data set [2] (Aspergillus versicolor, A. versicolor, read-out: MIC (ppm) against A. versicolor) is 2.5 mg/L (≈ 9.93 µM). For the same compound, the MIC in data set [2] (Aureobasidium pullulans, A. pullulans, read-out: MIC (ppm) against A. pullulans) is 10 mg/L (≈ 39.7 µM). In addition, the MIC in data set [2] (C. pilifera, read-out: MIC (ppm) against C. pilifera) worked out at 2.5 mg/L (≈ 9.93 µM). Moreover, the MIC in data set [2] (Cladosporium cladosporioides, C. cladosporioides, read-out: MIC (ppm) against C. cladosporioides) is 10 mg/L (≈ 39.7 µM). Besides, the MIC in data set [2] (Fusarium solani, F. solani, read-out: MIC (ppm) against F. solani) is 5 mg/L (≈ 19.9 µM). The MIC in data set [2] (Geotrichum candidum, G. candidum, read-out: MIC (ppm) against G. candidum) is 10 mg/L (≈ 39.7 µM). Moreover, the minimum inhibitory concentration (MIC) in data set [2] (P. purpurogenum, read-out: MIC (ppm) against P. purpurogenum) is 5 mg/L (≈ 19.9 µM). For the same compound, in data set [2] (P. violacea, read-out: MIC (ppm) against P. violacea), the MIC came out at 25 mg/L (≈ 99.3 µM). The MIC in data set [2] (Paecilomyces variotii, P. variotii, read-out: MIC (ppm) against P. variotii) is 5 mg/L (≈ 19.9 µM). Also, the MIC in data set [2] (S. atra, read-out: MIC (ppm) against S. atra) was 2.5 mg/L (≈ 9.93 µM). For the same compound, the MIC in data set [2] (S. entoxylina, read-out: MIC (ppm) against S. entoxylina) worked out at 10 mg/L (≈ 39.7 µM). The MIC in data set [2] (Trichoderma viride, T. viride, read-out: MIC (ppm) against T. viride) is 10 mg/L (≈ 39.7 µM). For the same compound, the MIC in data set [2] (U. atrum, read-out: MIC (ppm) against U. atrum) was 10 mg/L (≈ 39.7 µM).
